These results are taken from PubChem BioAssay (NCI).

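Method: 48-hour compound exposure of cells in 96-well plates, five concentrations, linear interpolation of endpoints. GI50 is the concentration that inhibits growth by half. TGI: total growth inhibition.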

Some test systems named below: NCI-H23 lung; OVCAR-8 ovarian; TK-10 renal; HCC-2998 colon; UACC-62 melanoma; CCRF-CEM leukemia; NCI-H226 lung; ACHN renal; HOP-92 NSCLC; EKVX NSCLC.
What all share (test): inhibition of tumour cell growth, NCI panel, 48 h

With `COc1cc2nc(-c3ccc(C(F)(F)F)cc3)cc(OCCCN3CCCC3)c2cc1OC`, the GI50 with NCI-H23 lung was 2.9 µM; with OVCAR-8 ovarian, 0.826 µM; with TK-10 renal, 7.51 µM; in the experiment with HCC-2998 colon, 2.07 µM; with UACC-62 melanoma it was 1.57 µM; in the experiment on CCRF-CEM leukemia, 1.08 µM. Further, the GI50 with NCI-H226 lung was 0.737 µM; in the experiment on ACHN renal, 0.754 µM; in the experiment on HOP-92 NSCLC it was 0.351 µM; in the experiment with EKVX NSCLC, 0.848 µM. The TGI is 17.6 µM in the experiment on NCI-H23 lung; > 49.7 µM in the experiment on OVCAR-8 ovarian; > 34.5 µM in the experiment on TK-10 renal; 10 µM with HCC-2998 colon; 6.6 µM in the experiment with UACC-62 melanoma; 9.92 µM with CCRF-CEM leukemia. The TGI was 10.6 µM with NCI-H226 lung, > 34.1 µM in the experiment with ACHN renal, 5.68 µM in the experiment with HOP-92 NSCLC and 24.5 µM with EKVX NSCLC.
With `CC(C)(C)c1ccc(OC2CCO2)cc1` (stereo not given), the TGI in the experiment on NCI-H23 lung was > 100 µM; in the experiment on OVCAR-8 ovarian, > 100 µM; in the experiment with TK-10 renal it was > 100 µM; with HCC-2998 colon it was 94.1 µM; in the experiment on UACC-62 melanoma it was > 100 µM; with CCRF-CEM leukemia, 65 µM. Also, the TGI in the experiment on NCI-H226 lung was 92.8 µM; in the experiment with ACHN renal, > 100 µM; with HOP-92 NSCLC, 82 µM; with EKVX NSCLC it was 90.1 µM.
`Cc1ccc(C)c(N2C(=O)C(=O)C(c3nc4ccccc4s3)C(=Nc3cccc4c(=O)[nH][nH]c(=O)c34)C2=O)c1` (stereo not given): the TGI in the experiment with NCI-H23 lung, with OVCAR-8 ovarian, in the experiment on TK-10 renal, in the experiment on HCC-2998 colon, in the experiment with UACC-62 melanoma and in the experiment with CCRF-CEM leukemia was > 100 µM each time. For the same molecule, the TGI with NCI-H226 lung, in the experiment on ACHN renal, with HOP-92 NSCLC and with EKVX NSCLC was > 100 µM each time.
Regarding `Cc1ccc(NC(=O)/C(Cc2nc3ccc([N+](=O)[O-])cc3[nH]c2=O)=N\NC(=O)C[n+]2ccccc2)c(C)c1`, the TGI is > 100 µM with NCI-H23 lung; 74 µM with OVCAR-8 ovarian; 64.4 µM in the experiment with TK-10 renal; > 100 µM in the experiment on HCC-2998 colon; > 100 µM in the experiment with UACC-62 melanoma; 61.1 µM in the experiment with CCRF-CEM leukemia. Moreover, the TGI is > 100 µM in the experiment with NCI-H226 lung, 47.6 µM with ACHN renal, > 100 µM with HOP-92 NSCLC and > 100 µM in the experiment on EKVX NSCLC.
Regarding `COC(=O)c1ccc2c(c1)C(=O)c1c-2n(CCCN=[N+]=[N-])c(=O)c2cc([N+](=O)[O-])ccc12`, the GI50 was 60 µM with NCI-H23 lung; > 100 µM in the experiment with OVCAR-8 ovarian; 29.6 µM in the experiment on TK-10 renal; > 100 µM with HCC-2998 colon; 37.2 µM in the experiment with UACC-62 melanoma; 42.2 µM in the experiment with CCRF-CEM leukemia. Further, the GI50 in the experiment with NCI-H226 lung is > 100 µM; in the experiment on ACHN renal, 13 µM; with HOP-92 NSCLC, 17.5 µM; in the experiment on EKVX NSCLC it was 83.5 µM. The TGI with NCI-H23 lung was > 100 µM; in the experiment on OVCAR-8 ovarian, > 100 µM; with TK-10 renal it was 68.6 µM; in the experiment on HCC-2998 colon it was > 100 µM; in the experiment with UACC-62 melanoma, > 100 µM; in the experiment with CCRF-CEM leukemia, > 100 µM. For the same molecule, the TGI is > 100 µM in the experiment with NCI-H226 lung, 28.7 µM in the experiment on ACHN renal, 53.3 µM in the experiment on HOP-92 NSCLC and > 100 µM in the experiment with EKVX NSCLC.
With `CC(C)(C)OC(=O)NC1CCCC1=O` (stereo not given), the TGI in the experiment on NCI-H23 lung, in the experiment on OVCAR-8 ovarian, in the experiment with TK-10 renal, in the experiment on HCC-2998 colon, in the experiment with UACC-62 melanoma and in the experiment with CCRF-CEM leukemia was > 100 µM in each case. Moreover, the TGI in the experiment on NCI-H226 lung, in the experiment with ACHN renal, with HOP-92 NSCLC and in the experiment on EKVX NSCLC was > 100 µM throughout.
As to `CCOC(OC1=C(C#N)CCCC1)C(CC)[Se]c1ccccc1` (stereo not given), the TGI was 31.5 µM in the experiment on NCI-H23 lung; 34.7 µM in the experiment on OVCAR-8 ovarian; > 100 µM with TK-10 renal; > 100 µM in the experiment with HCC-2998 colon; 48 µM in the experiment with UACC-62 melanoma; 56.4 µM with CCRF-CEM leukemia. For the same molecule, the TGI in the experiment on NCI-H226 lung was determined as 49.6 µM; in the experiment with ACHN renal, 95.5 µM; in the experiment with HOP-92 NSCLC, 61.3 µM; in the experiment on EKVX NSCLC, 69.2 µM.
Regarding `O=c1[nH]c2cc([N+](=O)[O-])ccc2nc1/C(=N\Nc1ccccc1)C(O)c1ccc2c(c1)OCO2` (stereo not given), the TGI in the experiment with NCI-H23 lung, in the experiment with OVCAR-8 ovarian, with TK-10 renal, in the experiment on HCC-2998 colon, in the experiment on UACC-62 melanoma and in the experiment with CCRF-CEM leukemia was > 100 µM throughout. The TGI with NCI-H226 lung was > 100 µM; with ACHN renal it was > 100 µM; in the experiment with HOP-92 NSCLC, 42.7 µM; in the experiment with EKVX NSCLC, > 100 µM.
Consider `Cc1cccc(C)c1N1C(=O)C(=O)C(c2nc3ccccc3s2)/C(=N/NC(=O)NN)C1=O` (stereo not given), for which the TGI in the experiment on NCI-H23 lung, in the experiment with OVCAR-8 ovarian, in the experiment with TK-10 renal, in the experiment with HCC-2998 colon, in the experiment with UACC-62 melanoma and in the experiment with CCRF-CEM leukemia was > 100 µM throughout. The TGI with NCI-H226 lung, in the experiment on ACHN renal, in the experiment with HOP-92 NSCLC and in the experiment with EKVX NSCLC was > 100 µM each time.
